US20240158446A1, “CYCLIC COMPOUND HAVING SELECTIVE INHIBITORY ACTION ON KRAS OVER HRAS AND NRAS” (CHUGAI SEIYAKU KABUSHIKI KAISHA, priority 2021, published 2024)
pIC50, pKd: −log10 of the molar value.

What was measured:
[1] = target: GDP-bound KRAS wild-type protein (Homo sapiens, UniProt P01116); test: Binding to KRAS by surface plasmon resonance (SPR), Single Cycle Kinetics; details: SPR, Single Cycle Kinetics, 1:1 binding model; GDP-bound KRAS wild-type protein; read-out: KRAS KD
[2] = target: GDP-bound NRAS wild-type protein (Homo sapiens, UniProt P01111); test: Binding to NRAS by surface plasmon resonance (SPR), Single Cycle Kinetics; details: SPR; GDP-bound NRAS wild-type protein vs GDP-bound KRAS wild-type protein; KD ratio class
[3] = target: GDP-bound HRAS wild-type protein (Homo sapiens, UniProt P01112); test: Binding to HRAS by surface plasmon resonance (SPR), Single Cycle Kinetics; details: SPR; GDP-bound HRAS wild-type protein vs GDP-bound KRAS wild-type protein; KD ratio class
[4] = system: human lung cancer strain NCI-H441;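 further: cell proliferation inhibition after four days measured by CellTiter-Glo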

Chain of GDP-bound KRAS wild-type protein (P01116 whole entry): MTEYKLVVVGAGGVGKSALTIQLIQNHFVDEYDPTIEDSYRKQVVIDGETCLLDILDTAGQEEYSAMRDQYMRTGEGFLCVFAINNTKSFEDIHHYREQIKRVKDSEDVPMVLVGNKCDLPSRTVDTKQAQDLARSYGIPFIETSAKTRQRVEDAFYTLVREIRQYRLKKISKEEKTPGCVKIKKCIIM
Chain of GDP-bound NRAS wild-type protein (P01111 whole entry): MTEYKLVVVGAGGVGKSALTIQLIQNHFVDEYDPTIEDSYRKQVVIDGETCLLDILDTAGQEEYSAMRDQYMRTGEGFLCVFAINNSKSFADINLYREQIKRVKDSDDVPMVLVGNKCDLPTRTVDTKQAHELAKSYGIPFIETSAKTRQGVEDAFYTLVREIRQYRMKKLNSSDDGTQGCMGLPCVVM
Chain of GDP-bound HRAS wild-type protein (P01112 whole entry): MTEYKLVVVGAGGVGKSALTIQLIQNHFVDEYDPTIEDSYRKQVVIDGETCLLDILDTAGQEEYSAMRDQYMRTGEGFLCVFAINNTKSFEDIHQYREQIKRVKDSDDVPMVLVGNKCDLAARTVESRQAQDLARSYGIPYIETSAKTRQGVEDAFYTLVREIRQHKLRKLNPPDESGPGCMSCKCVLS

SMILES | pKd [1] | NRAS/KRAS (ratio of KD value for NRAS to KD value for KRAS) [2] | HRAS/KRAS (ratio of KD value for HRAS to KD value for KRAS) [3] | pIC50 [4]
CCO[C@@H]1C[C@H]2C(=O)NC3(CCC3)C(=O)N(C)[C@@H](C3CCCC3)C(=O)N(C)[C@H](C(=O)N(C)C)CC(=O)N(C)[C@@H](CC(C)C)C(=O)N[C@@H]([C@@H](C)CC)C(=O)N(C)CC(=O)N(C)[C@H]3C/C=C\CCN(C3=O)[C@@H](CC3CCCCC3)C(=O)N(C)CC(=O)N[C@@H](CCc3cc(F)c(C(F)(F)F)c(F)c3)C(=O)N2C1 [PP1467, (2S,8S,12R,14S,20S,23S,27S,30S,36S,38Z)-2-(cyclohexylmethyl)-20-cyclopentyl-8-[2-[3,5-difluoro-4-(trifluoromethyl)phenyl]ethyl]-12-ethoxy-27-isobutyl-N,N,4,19,22,26,32,35-octamethyl-30-[(1S)-1-methylpropyl]-3,6,9,15,18,21,25,28,31,34,42-undecaoxo-spiro[1,4,7,10,16,19,22,26,29,32,35-undecazatricyclo[34.5.1.0^10,14]dotetracont-38-ene-17,1′-cyclobutane]-23-carboxamide] | 9.92 | A (a compound having 10 or more and less than 20 is denoted as A) | A (a compound having 10 or more and less than 20 is denoted as A) | 7.95
CC[C@H](C)[C@@H]1NC(=O)[C@H](CC)N(C)C(=O)C[C@@H](C(=O)N(C)C)N(C)C(=O)[C@H](C2CCCC2)N(C)C(=O)C2(CCC2)NC(=O)[C@@H]2C[C@H](C)CN2C(=O)[C@H](CCc2cc(F)c(C(F)(F)F)c(F)c2)NC(=O)CN(C)C(=O)[C@H](CC2CCC(F)(F)CC2)N2CC/C=C\C[C@@H](C2=O)N(C)C(=O)CN(C)C1=O [PP1457, (2S,8S,12S,14S,20S,23S,27S,30S,36S,38Z)-20-cyclopentyl-2-[(4,4-difluorocyclohexyl)methyl]-8-[2-[3,5-difluoro-4-(trifluoromethyl)phenyl]ethyl]-27-ethyl-N,N,4,12,19,22,26,32,35-nonamethyl-30-[(1S)-1-methylpropyl]-3,6,9,15,18,21,25,28,31,34,42-undecaoxo-spiro[1,4,7,10,16,19,22,26,29,32,35-undecazatricyclo[34.5.1.0^10,14]dotetracont-38-ene-17,1′-cyclobutane]-23-carboxamide] | 9.82 | A (a compound having 10 or more and less than 20 is denoted as A) | A (a compound having 10 or more and less than 20 is denoted as A) | 7.52
CCO[C@@H]1C[C@H]2C(=O)NC3(CC(F)(F)C3)C(=O)N(C)[C@@H](C3CCCC3)C(=O)N(C)[C@H](C(=O)N(C)C)CC(=O)N(C)[C@@H](CC)C(=O)N[C@@H]([C@@H](C)CC)C(=O)N(C)CC(=O)N(C)[C@H]3C/C=C\CCN(C3=O)[C@@H](Cc3ccc(C(F)(F)F)cc3)C(=O)N(C)CC(=O)N[C@@H](CCc3cc(F)c(C(F)(F)F)c(F)c3)C(=O)N2C1 [PP1274, (2S,8S,12R,14S,20S,23S,27S,30S,36S,38Z)-20-cyclopentyl-8-[2-[3,5-difluoro-4-(trifluoromethyl)phenyl]ethyl]-12-ethoxy-27-ethyl-1′,1′-difluoro-N,N,4,19,22,26,32,35-octamethyl-30-[(1S)-1-methylpropyl]-3,6,9,15,18,21,25,28,31,34,42-undecaoxo-2-[[4-(trifluoromethyl)phenyl]methyl]spiro[1,4,7,10,16,19,22,26,29,32,35-undecazatricyclo[34.5.1.0^10,14]dotetracont-38-ene-17,3′-cyclobutane]-23-carboxamide] | 10.49 | A (a compound having 10 or more and less than 20 is denoted as A) | A (a compound having 10 or more and less than 20 is denoted as A) | 8.12
